# Measured values as given in patent US20200331904A1, “3-AMINO-[1,2,4]-TRIAZOLE DERIVATIVES AND THEIR USE FOR CONTROLLING UNDESIRED PLANT GROWTH” (Bayer CropScience Aktiengesellschaft, priority 2017, published 2020).
# Tests used:
# Format in all cases: in vivo
# [1] = test system: Matricaria inodora; assay: Pre-emergence herbicidal efficacy, MATIN; conditions: application rate 320 g/ha, scored visually after about 3 weeks
# Method in brief: (§1)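 Visual percent activity relative to untreated plants (0% = like control, 100% = dead), scored about 3 weeks after treatment under greenhouse conditions.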
# [2] = test system: Stellaria media; assay: Pre-emergence herbicidal efficacy, STEME; conditions: application rate 320 g/ha, scored visually after about 3 weeks
# Method in brief: as §1
# [3] = test system: Viola tricolor; assay: Pre-emergence herbicidal efficacy, VIOTR; conditions: application rate 320 g/ha, scored visually after about 3 weeks
# Method in brief: as §1
# [4] = test system: Viola tricolor; assay: Post-emergence herbicidal efficacy, VIOTR
# From the text: (§2) ABUTH: Abutilon theophrasti ALOMY: Alopecurus myosuroides AMARE: Amaranthus retroflexus AVEFA: Avena fatua CYPES: Cyperus esculentus ECHCG: Echinochloa crus-galli LOLMU: Lolium multiflorum MATIN: Matricaria inodora PHBPU: Ipomoea purpurea POLCO: Polygonum convolvulus SETVI: Setaria viridis STEME: Stellaria media VERPE: Veronica persica VTOTR: Viola tricolor
# (§3) C.2 Post-Emergence Herbicidal Action and Crop Plant Compatibility
# (§4) Seeds of monocotyledonous and dicotyledonous weeds and crop plants are placed in sandy loam in plastic or organic planting pots, covered with soil and cultivated in a greenhouse under controlled growth conditions. 2 to 3 weeks after sowing, the test plants are treated at the one-leaf stage. The compounds of the invention, formulated in the form of wettable powders (WP) or as emulsion concentrates (EC), are then sprayed onto the green parts of the plants as aqueous suspension or emulsion with addition of 0.5% additive at a water application rate of […] (converted). After the test plants had been kept in the greenhouse under optimum growth conditions for about 3 weeks, the activity of the preparations is rated visually in comparison to untreated controls. For example, 100% activity=the plants have died, 0% activity=like control plants.
# [5] = test system: Veronica persica; assay: Post-emergence herbicidal efficacy, VERPE
# From the text: as §2, §3, §4
# [6] = application rate 1280 g/ha, rated visually after about 3 weeks
# [7] = application rate 320 g/ha, rated visually after about 3 weeks (Table B7)
Structure (SMILES),Herbicidal efficacy against MATIN [1] [%],Herbicidal efficacy against STEME [2] [%],Herbicidal efficacy against VIOTR [3] [%],"Herbicidal efficacy against VIOTR [4, 6] [%]","Herbicidal efficacy against VERPE [5, 6] [%]","Herbicidal efficacy against VIOTR [4, 7] [%]","Herbicidal efficacy against VERPE [5, 7] [%]"
CC(=O)N1CCn2nc(NC3CCOc4ccccc43)nc2C1 (centres unmarked) [Example I-068],100,100,100,80,90,,
O=S(=O)(C1CC1)N1CCn2nc(NC3CCCc4ccccc43)nc2C1 (centres unmarked) [Example I-087],100,100,100,80,90,80,80
Cc1ccc2c(c1)C(Nc1nc3n(n1)CCN(C(=O)c1cccc(Cl)c1)C3)C(C)C2 (centres unmarked) [Example I-170],90,100,100,,,80,90
Cc1ccc2c(c1)[C@H](Nc1nc3n(n1)CCN(S(=O)(=O)Cc1ccccc1)C3)[C@@H](C)C2 [Example I-194],90,100,100,,,80,100
Cc1ccc2c(c1)[C@H](Nc1nc3n(n1)CCN(S(=O)(=O)c1ccccc1Cl)C3)[C@@H](C)C2 [Example I-195],90,100,100,90,90,80,80
Cc1ccc2c(c1)[C@H](Nc1nc3n(n1)CCN(S(=O)(=O)Cc1ccccc1)C3)CCC2 [Example I-202],90,100,100,,,80,80
O=C1CCn2nc(NC3CCc4ccccc43)nc2N1CC1CC1 (centres unmarked) [Example I-219],100,100,100,80,90,,
[O-][S+]1CCCCn2nc(NC3CCOc4ccccc43)nc21 (centres unmarked) [Example I-247],100,100,100,80,80,,
